Reference: ChEMBL document CHEMBL3885861, “Open TG-GATES”

Species on record: Rattus norvegicus
Test: Open TG-GATES - Regimen: Daily Repeat
Format: toxicity, organism-based, Sprague-Dawley
Parameters: regimen Daily Repeat, gender Male, age 6 weeks
Conditions: in vivo, po, 150 mg/kg, route gavage, dose level High; for APTT / Bas / Eos / Fbg / Hb / Ht / Lym / MCH / MCHC / MCV / Mono / Neu / PT / Plat / RBC / Ret / WBC: tissue Blood; for KIDNEY_L / KIDNEY_R / KIDNEY_TOTAL: tissue Kidney; for LIVER: tissue Liver; for A/G / ALP / ALT / AST / BUN / CRE / Ca / Cl / DBIL / GLC / IP / K / LDH / Na / PL / RALB / TBIL / TC / TG / TP / gamma-GTP: tissue Plasma

Compound: CN(C)CCC=C1c2ccccc2CCc2ccccc21 [AMITRIPTYLINE]
- TERMINAL_BW (72 h, time 3 day): 200.8 g
- APTT (72 h, time 3 day): 15 s
- Bas (72 h, time 3 day): 0.2%
- Eos (72 h, time 3 day): 1.2%
- Fbg (72 h, time 3 day): 288.6 mg/dL
- Hb (72 h, time 3 day): 14.4 g/dL
- Ht (72 h, time 3 day): 43.5%
- Lym (72 h, time 3 day): 79.6%
- MCH (72 h, time 3 day): 20.5 pg
- MCHC (72 h, time 3 day): 33.2%
- MCV (72 h, time 3 day): 61.8 fL
- Mono (72 h, time 3 day): 2.4%
- Neu (72 h, time 3 day): 16.2%
- PT (72 h, time 3 day): 16 s
- Plat (72 h, time 3 day): 125 x10_4/uL
- RBC (72 h, time 3 day): 705 x10_4/ul
- Ret (72 h, time 3 day): 4.5%
- WBC (72 h, time 3 day): 87.2 x10_2/uL
- KIDNEY_L (72 h, time 3 day): 0.9 g
- KIDNEY_R (72 h, time 3 day): 0.9 g
- KIDNEY_TOTAL (72 h, time 3 day): 1.8 g
- LIVER (72 h, time 3 day): 9.1 g
- A/G (72 h, time 3 day): 0.8
- ALP (72 h, time 3 day): 1755.4 IU/L
- ALT (72 h, time 3 day): 45.4 IU/L
- AST (72 h, time 3 day): 63 IU/L
- BUN (72 h, time 3 day): 13.8 mg/dL
- CRE (72 h, time 3 day): 0.2 mg/dL
- Ca (72 h, time 3 day): 10.7 mg/dL
- Cl (72 h, time 3 day): 106.2 meq/L
- DBIL (72 h, time 3 day): 0.016 mg/dL
- GLC (72 h, time 3 day): 174.4 mg/dL
- IP (72 h, time 3 day): 8 mg/dL
- K (72 h, time 3 day): 4.4 meq/L
- LDH (72 h, time 3 day): 86.2 IU/L
- Na (72 h, time 3 day): 143.8 meq/L
- PL (72 h, time 3 day): 155.8 mg/dL
- RALB (72 h, time 3 day): 2.6 g/dL
- TBIL (72 h, time 3 day): 0.052 mg/dL
- TC (72 h, time 3 day): 94.2 mg/dL
- TG (72 h, time 3 day): 93 mg/dL
- TP (72 h, time 3 day): 5.8 g/dL
- gamma-GTP (72 h, time 3 day): 0.6 IU/L
- TERMINAL_BW ([…], time 7 day): 206.8 g
- TERMINAL_BW ([…], time 14 day): 250.8 g
- TERMINAL_BW ([…], time 28 day): 303.4 g
- APTT ([…], time 7 day): 16.2 s
- Bas ([…], time 7 day): 0%
- Eos ([…], time 7 day): 1.4%
- Fbg ([…], time 7 day): 413.4 mg/dL
- Hb ([…], time 7 day): 15.3 g/dL
- Ht ([…], time 7 day): 45.5%
- Lym ([…], time 7 day): 70.8%
- MCH ([…], time 7 day): 20.6 pg
- MCHC ([…], time 7 day): 33.5%
- MCV ([…], time 7 day): 61.6 fL
- Mono ([…], time 7 day): 2.4%
- Neu ([…], time 7 day): 24.6%
- PT ([…], time 7 day): 15.9 s
- Plat ([…], time 7 day): 108.8 x10_4/uL
- RBC ([…], time 7 day): 740.8 x10_4/ul
- Ret ([…], time 7 day): 3.1%
- WBC ([…], time 7 day): 99.3 x10_2/uL
- APTT ([…], time 14 day): 16.2 s
- Bas ([…], time 14 day): 0.6%
- Eos ([…], time 14 day): 0.8%
- Fbg ([…], time 14 day): 326.6 mg/dL
- Hb ([…], time 14 day): 15 g/dL
- Ht ([…], time 14 day): 44.7%
- Lym ([…], time 14 day): 76.6%
- MCH ([…], time 14 day): 19.7 pg
- MCHC ([…], time 14 day): 33.6%
- MCV ([…], time 14 day): 58.6 fL
- Mono ([…], time 14 day): 2.4%
- Neu ([…], time 14 day): 19.2%
- PT ([…], time 14 day): 16.6 s
- Plat ([…], time 14 day): 110.7 x10_4/uL
- RBC ([…], time 14 day): 763.4 x10_4/ul
- Ret ([…], time 14 day): 2.8%
- WBC ([…], time 14 day): 128.1 x10_2/uL
- APTT ([…], time 28 day): 22.2 s
- Bas ([…], time 28 day): 0.3%
- Eos ([…], time 28 day): 1%
- Fbg ([…], time 28 day): 311.3 mg/dL
- Hb ([…], time 28 day): 15.8 g/dL
- Ht ([…], time 28 day): 46.1%
- Lym ([…], time 28 day): 82%
- MCH ([…], time 28 day): 19.1 pg
- MCHC ([…], time 28 day): 34.3%
- MCV ([…], time 28 day): 55.9 fL
- Mono ([…], time 28 day): 1.7%
- Neu ([…], time 28 day): 14%
- PT ([…], time 28 day): 16.4 s
- Plat ([…], time 28 day): 97.9 x10_4/uL
- RBC ([…], time 28 day): 824.3 x10_4/ul
- Ret ([…], time 28 day): 2%
- WBC ([…], time 28 day): 104.7 x10_2/uL
- KIDNEY_L ([…], time 7 day): 0.9 g
- KIDNEY_R ([…], time 7 day): 1 g
- KIDNEY_TOTAL ([…], time 7 day): 1.9 g
- KIDNEY_L ([…], time 14 day): 1 g
- KIDNEY_R ([…], time 14 day): 1 g
- KIDNEY_TOTAL ([…], time 14 day): 2 g
- KIDNEY_L ([…], time 28 day): 1.2 g
- KIDNEY_R ([…], time 28 day): 1.2 g
- KIDNEY_TOTAL ([…], time 28 day): 2.4 g
- LIVER ([…], time 7 day): 9.5 g
- LIVER ([…], time 14 day): 12.8 g
- LIVER ([…], time 28 day): 16.8 g
- A/G ([…], time 7 day): 0.8
- ALP ([…], time 7 day): 1572.2 IU/L
- ALT ([…], time 7 day): 42.6 IU/L
- AST ([…], time 7 day): 64.2 IU/L
- BUN ([…], time 7 day): 14.4 mg/dL
- CRE ([…], time 7 day): 0.2 mg/dL
- Ca ([…], time 7 day): 10.6 mg/dL
- Cl ([…], time 7 day): 104.8 meq/L
- DBIL ([…], time 7 day): 0.008 mg/dL
- GLC ([…], time 7 day): 169.2 mg/dL
- IP ([…], time 7 day): 8 mg/dL
- K ([…], time 7 day): 4.1 meq/L
- LDH ([…], time 7 day): 68.2 IU/L
- Na ([…], time 7 day): 143.8 meq/L
- PL ([…], time 7 day): 144.6 mg/dL
- RALB ([…], time 7 day): 2.7 g/dL
- TBIL ([…], time 7 day): 0.042 mg/dL
- TC ([…], time 7 day): 97 mg/dL
- TG ([…], time 7 day): 29.6 mg/dL
- TP ([…], time 7 day): 5.9 g/dL
- gamma-GTP ([…], time 7 day): 0.8 IU/L
- A/G ([…], time 14 day): 0.8
- ALP ([…], time 14 day): 1690.2 IU/L
- ALT ([…], time 14 day): 39.8 IU/L
- AST ([…], time 14 day): 59.2 IU/L
- BUN ([…], time 14 day): 15.8 mg/dL
- CRE ([…], time 14 day): 0.2 mg/dL
- Ca ([…], time 14 day): 10.9 mg/dL
- Cl ([…], time 14 day): 104 meq/L
- DBIL ([…], time 14 day): 0.012 mg/dL
- GLC ([…], time 14 day): 164.2 mg/dL
- IP ([…], time 14 day): 7.6 mg/dL
- K ([…], time 14 day): 4.3 meq/L
- LDH ([…], time 14 day): 51.2 IU/L
- Na ([…], time 14 day): 143.6 meq/L
- PL ([…], time 14 day): 135 mg/dL
- RALB ([…], time 14 day): 2.6 g/dL
- TBIL ([…], time 14 day): 0.042 mg/dL
- TC ([…], time 14 day): 78.6 mg/dL
- TG ([…], time 14 day): 62.8 mg/dL
- TP ([…], time 14 day): 6 g/dL
- gamma-GTP ([…], time 14 day): 0.6 IU/L
- A/G ([…], time 28 day): 0.9
- ALP ([…], time 28 day): 1692.3 IU/L
- ALT ([…], time 28 day): 39.7 IU/L
- AST ([…], time 28 day): 57.7 IU/L
- BUN ([…], time 28 day): 14.7 mg/dL
- CRE ([…], time 28 day): 0.2 mg/dL
- Ca ([…], time 28 day): 10.7 mg/dL
- Cl ([…], time 28 day): 103.7 meq/L
- DBIL ([…], time 28 day): 0.0167 mg/dL
- GLC ([…], time 28 day): 174 mg/dL
- IP ([…], time 28 day): 7.1 mg/dL
- K ([…], time 28 day): 4 meq/L
- LDH ([…], time 28 day): 50 IU/L
- Na ([…], time 28 day): 143 meq/L
- PL ([…], time 28 day): 97.7 mg/dL
- RALB ([…], time 28 day): 2.9 g/dL
- TBIL ([…], time 28 day): 0.0467 mg/dL
- TC ([…], time 28 day): 56.3 mg/dL
- TG ([…], time 28 day): 35.3 mg/dL
- TP ([…], time 28 day): 6.3 g/dL
- gamma-GTP ([…], time 28 day): 0.7 IU/L
